From patent US12492186B2, “Bicyclic heterocyclic compounds useful as IRAK4 inhibitors” (BRISTOL-MYERS SQUIBB COMPANY, priority 2019, dated 2025)

Legend:
IRAK4 = IRAK4 (Homo sapiens (Human), UniProt Q9NWZ3); assay: IRAK4 Inhibition Assay; assay type: biochemical; conditions: ATP 500 μM; IRAK4 0.6 nM; 60 min room temperature; Caliper LABCHIP 3000
Protocol: The assays were performed in U-bottom 384-well plates. The final assay volume was 30 μL prepared from 15 μL additions of enzyme and substrates (fluoresceinated peptide and ATP) and test compounds in assay buffer (20 mM HEPES pH 7.2, 10 mM MgCl2, 0.015% Brij 35 and 4 mM DTT). The reaction was initiated by the combination of IRAK4 with substrates and test compounds. The reaction mixture was incubated at room temperature for 60 min. and terminated by adding 45 μL of 35 mM EDTA to each sample. The reaction mixture was analyzed on the Caliper LABCHIP® 3000 (Caliper, Hopkinton, MA) by electrophoretic separation of the fluorescent substrate and phosphorylated product. Inhibition data were calculated by comparison to no enzyme control reactions for 100% inhibition and vehicle-only reactions for 0% inhibition. The final concentrations of reagents in the assays are ATP, 500 μM; FL-IPTSPITTTYFFFKKK peptide 1.5 μM; IRAK4, 0.6 nM; and DMSO, 1.6%.

Human whole blood = assay: IRAK4 Whole Blood Assay (IL-6 levels after stimulation with TLR2 agonist lipoteichoic acid); assay type: cell-based; conditions: 10 μg/mL lipoteichoic acid, 5 hours
Protocol: Human whole blood containing the anti-coagulant ACD-A was plated in 384-well plate (25 μL/well) and incubated with compounds for 60 minutes at 37° C. in a 5% CO2 incubator. The blood was stimulated with a TLR2 agonist, 10 μg/mL final concentration of lipoteichoic acid (Invivogen, San Diego, CA) in 25 μL RPMI (Gibco) for 5 hours in a 5% CO2 incubator. At the end of the incubation, plates were centrifuged at 2300 rpm for 5 minutes. Supernatants were harvested and analyzed for IL-6 levels by Flow Cytometry beads assay (BD Biosciences, San Jose, CA).

Sequence of IRAK4 (Q9NWZ3 whole entry, species assumed): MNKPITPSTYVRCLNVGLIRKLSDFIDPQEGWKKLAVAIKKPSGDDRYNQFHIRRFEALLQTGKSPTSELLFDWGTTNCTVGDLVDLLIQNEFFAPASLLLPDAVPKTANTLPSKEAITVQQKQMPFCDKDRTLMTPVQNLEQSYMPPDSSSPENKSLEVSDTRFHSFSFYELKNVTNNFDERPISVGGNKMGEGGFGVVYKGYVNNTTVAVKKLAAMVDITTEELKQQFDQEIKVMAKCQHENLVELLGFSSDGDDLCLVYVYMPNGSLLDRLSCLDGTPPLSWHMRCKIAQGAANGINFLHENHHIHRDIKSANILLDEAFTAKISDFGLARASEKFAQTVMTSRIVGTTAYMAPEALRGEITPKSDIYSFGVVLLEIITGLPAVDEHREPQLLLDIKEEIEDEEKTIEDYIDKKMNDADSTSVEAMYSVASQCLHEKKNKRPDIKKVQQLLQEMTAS

Row | Structure (SMILES) | IC50 (IRAK4) [nM] | EC50 (Human whole blood) [nM]
1 | CC(C)Nc1c(C(=O)NC[C@@H](F)C(C)(C)O)cnc2ccc(-c3cn[nH]c3)cc12 [Example 1, (R)—N-(2-fluoro-3-hydroxy-3-methylbutyl)-4-(isopropylamino)-6-(1H-pyrazol-4-yl) quinoline-3-carboxamide] | 2.6 | 501
2 | CCOCCNC(=O)c1cnc2ccc(-c3cn[nH]c3)cc2c1NC(C)C [Example 10, N-(2-ethoxyethyl)-4-(isopropylamino)-6-(1H-pyrazol-4-yl)quinoline-3-carboxamide] | 15 | 2260
3 | CC(C)CCNC(=O)c1cnc2ccc(-c3cn[nH]c3)cc2c1NC(C)C [Example 15, N-isopentyl-4-(isopropylamino)-6-(1H-pyrazol-4-yl)quinoline-3-carboxamide] | 7.7 | 675
4 | CC(C)Nc1c(C(=O)NCc2nnc[nH]2)cnc2ccc(-c3cn[nH]c3)cc12 [Example 22, N-((4H-1,2,4-triazol-3-yl)methyl)-4-(isopropylamino)-6-(1H-pyrazol-4-yl)quinoline-3-carboxamide] | 7.5 | 6450
5 | COC(=O)N[C@H]1CC[C@H](NC(=O)c2cnc3ccc(-c4cn[nH]c4)cc3c2NC(C)C)C1 [Example 26, methyl ((1S,3S)-3-(4-(isopropylamino)-6-(1H-pyrazol-4-yl)quinoline-3-carboxamido)cyclopentyl) carbamate] | 12.3 | 1460
6 | CCNc1c(C(=O)NC[C@@H](F)C(C)(C)O)cnc2ccc(-c3cn[nH]c3)cc12 [Example 27, (R)-4-(ethylamino)-N-(2-fluoro-3-hydroxy-3-methylbutyl)-6-(1H-pyrazol-4-yl)quinoline-3-carboxamide] | 8.9 | 2820
7 | CC(C)(O)[C@H](F)CNC(=O)c1cnc2ccc(-c3cn[nH]c3)cc2c1NC1COC1 [Example 34, (R)—N-(2-fluoro-3-hydroxy-3-methylbutyl)-4-(oxetan-3-ylamino)-6-(1H-pyrazol-4-yl)quinoline-3-carboxamide] | 9.8 | 544
8 | CC(O)CCNC(=O)c1cnc2ccc(-c3cn[nH]c3)cc2c1NCC(F)F (stereo not drawn) [Example 65, 4-((2,2-difluoroethyl)amino)-N-(3-hydroxybutyl)-6-(1H-pyrazol-4-yl)quinoline-3-carboxamide] | – | 2200
9 | CCCc1nc(-c2cnc3ccc(-c4cn[nH]c4)cc3c2NC(C)C)n[nH]1 [Example 125, N-isopropyl-3-(5-propyl-1H-1,2,4-triazol-3-yl)-6-(1H-pyrazol-4-yl)quinolin-4-amine] | 83.6 | –
10 | CC(C)Nc1c(-c2cc(C3CCCCN3)no2)cnc2ccc(-c3cn[nH]c3)cc12 (stereo not drawn) [Example 128, N-isopropyl-3-(3-(piperidin-2-yl)isoxazol-5-yl)-6-(1H-pyrazol-4-yl)quinolin-4-amine] | – | 758
11 | CC(C)Nc1c(C(=O)NCCC2CC2)cnc2ccc(Nc3cncc(F)c3)nc12 [Example 147, N-(2-cyclopropylethyl)-6-((5-fluoropyridin-3-yl)amino)-4-(isopropylamino)-1,5-naphthyridine-3-carboxamide] | 900 | –
12 | CC(C)Nc1c(C(=O)NCCC2CC2)cnc2ccc(-c3cncc(C#N)c3)nc12 [Example 151, 6-(5-cyanopyridin-3-yl)-N-(2-cyclopropylethyl)-4-(isopropylamino)-1,5-naphthyridine-3-carboxamide] | 1280 | –
13 | CC(=O)N[C@H]1CC[C@H](NC(=O)c2cnc3ccc(-c4ccnc(C#N)c4)nc3c2NC(C)C)CC1 [Example 152, N-((1r,4r)-4-acetamidocyclohexyl)-6-(2-cyanopyridin-4-yl)-4-(isopropylamino)-1,5-naphthyridine-3-carboxamide] | 78 | –
14 | CC(=O)N[C@H]1CC[C@H](NC(=O)c2cnc3ccc(-c4cccnc4)nc3c2NC(C)C)CC1 [Example 153, N-((1r,4r)-4-acetamidocyclohexyl)-4-(isopropylamino)-6-(pyridin-3-yl)-1,5-naphthyridine-3-carboxamide] | 31.6 | –
15 | CC(C)Nc1c(C(=O)NC[C@@H](F)C(C)(C)O)cnc2ncc(-c3cn[nH]c3)cc12 [Example 161, (R)—N-(2-fluoro-3-hydroxy-3-methylbutyl)-4-(isopropylamino)-6-(1H-pyrazol-4-yl)-1,8-naphthyridine-3-carboxamide] | 1210 | –

Other lines, results leading:

Row | IC50 (IRAK4) [nM] | EC50 (Human whole blood) [nM] | Structure (SMILES)
16 | 8.2 | 5710 | CC(C)Nc1c(C(=O)NC[C@@H](F)C(C)(C)O)cnc2ccc(-c3cncs3)cc12 [Example 7, (R)—N-(2-fluoro-3-hydroxy-3-methylbutyl)-4-(isopropylamino)-6-(thiazol-5-yl)quinoline-3-carboxamide]
17 | 9.5 | 1670 | CC(C)Nc1c(C(=O)N[C@H]2CC[C@H](O)CC2)cnc2ccc(-c3cn[nH]c3)cc12 [Example 11, N-((1r,4r)-4-hydroxycyclohexyl)-4-(isopropylamino)-6-(1H-pyrazol-4-yl)quinoline-3-carboxamide]
18 | 14.1 | 868 | CC(C)Nc1c(C(=O)NCc2cnco2)cnc2ccc(-c3cn[nH]c3)cc12 [Example 14, 4-(isopropylamino)-N-(oxazol-5-ylmethyl)-6-(1H-pyrazol-4-yl)quinoline-3-carboxamide]
19 | 8 | 936 | CC(C)Nc1c(C(=O)NCCC(C)(C)O)cnc2ccc(-c3cn[nH]c3)cc12 [Example 17, N-(3-hydroxy-3-methylbutyl)-4-(isopropylamino)-6-(1H-pyrazol-4-yl)quinoline-3-carboxamide]
20 | 7.2 | 1700 | CC(C)Nc1c(C(=O)N[C@H]2CC[C@H](N)CC2)cnc2ccc(-c3cn[nH]c3)cc12 [Example 23, N-((1r,4r)-4-aminocyclohexyl)-4-(isopropylamino)-6-(1H-pyrazol-4-yl)quinoline-3-carboxamide]
21 | 7.7 | 584 | CC(=O)N[C@H]1CC[C@H](NC(=O)c2cnc3ccc(-c4cn[nH]c4)cc3c2NC(C)C)CC1 [Example 24, N-((1r,4r)-4-acetamidocyclohexyl)-4-(isopropylamino)-6-(1H-pyrazol-4-yl)quinoline-3-carboxamide]
22 | 3.3 | 1280 | COC(=O)N[C@H]1CC[C@H](NC(=O)c2cnc3ccc(-c4cn[nH]c4)cc3c2NC(C)C)CC1 [Example 25, methyl ((1r,4r)-4-(4-(isopropylamino)-6-(1H-pyrazol-4-yl)quinoline-3-carboxamido)cyclohexyl)carbamate]
23 | 13.7 | 759 | CC(O)CCNC(=O)c1cnc2ccc(-c3cn[nH]c3)cc2c1NC(C)C (stereo not drawn) [Example 36, N-(3-hydroxybutyl)-4-(isopropylamino)-6-(1H-pyrazol-4-yl)quinoline-3-carboxamide]
24 | 2.5 | 396 | CC(C)Nc1c(C(=O)NCCC2(O)CC(F)(F)C2)cnc2ccc(-c3cn[nH]c3)cc12 [Example 42, N-(2-(3,3-difluoro-1-hydroxycyclobutyl)ethyl)-4-(isopropylamino)-6-(1H-pyrazol-4-yl)quinoline-3-carboxamide]
25 | 14.6 | 549 | CC(C)Nc1c(C(=O)NCCC(F)(F)F)cnc2ccc(-c3cn[nH]c3)cc12 [Example 43, 4-(isopropylamino)-6-(1H-pyrazol-4-yl)-N-(3,3,3-trifluoropropyl)quinoline-3-carboxamide]
26 | 34.4 | – | CC(C)CCc1nc(-c2cnc3ccc(-c4cn[nH]c4)cc3c2NC(C)C)n[nH]1 [Example 126, 3-(5-isopentyl-1H-1,2,4-triazol-3-yl)-N-isopropyl-6-(1H-pyrazol-4-yl)quinolin-4-amine]
27 | 38.8 | – | CC(C)Nc1c(-c2cn(CCS(C)(=O)=O)nn2)cnc2ccc(-c3cn[nH]c3)cc12 [Example 137, N-isopropyl-3-(1-(2-(methylsulfonyl)ethyl)-1H-1,2,3-triazol-4-yl)-6-(1H-pyrazol-4-yl)quinolin-4-amine]
28 | 24.2 | – | CC(C)Nc1c(C(=O)NCCC(C)(C)O)cnc2ccc(-c3ccncc3)nc12 [Example 145, N-(3-hydroxy-3-methylbutyl)-4-(isopropylamino)-6-(pyridin-4-yl)-1,5-naphthyridine-3-carboxamide]
29 | 89.8 | – | CC(C)Nc1c(C(=O)NCCC(C)(C)O)cnc2ccc(-c3cccnc3)nc12 [Example 146, N-(3-hydroxy-3-methylbutyl)-4-(isopropylamino)-6-(pyridin-3-yl)-1,5-naphthyridine-3-carboxamide]
30 | 92.7 | – | CC(=O)N[C@H]1CC[C@H](NC(=O)c2cnc3ccc(-c4cncc(C#N)c4)nc3c2NC(C)C)CC1 [Example 154, N-((1r,4r)-4-acetamidocyclohexyl)-6-(5-cyanopyridin-3-yl)-4-(isopropylamino)-1,5-naphthyridine-3-carboxamide]
31 | 280 | – | CC(C)Nc1c(C(=O)NCCC2CC2)cnc2ccc(-c3ccnc(C#N)c3)nc12 [Example 157, 6-(2-cyanopyridin-4-yl)-N-(2-cyclopropylethyl)-4-(isopropylamino)-1,5-naphthyridine-3-carboxamide]
